Marks after values point to notes of the source that are not given here.
What was measured:
α1β3γ2 GABAA receptors = target: T1, α1β3γ2 GABAA receptors (Homo sapiens, UniProt P14867+P18507); assay: Voltage clamp recordings from Xenopus oocytes; format: cell-based
T1 construct: expressed in transfected cells; host or cells: Xenopus laevis oocytes injected with cRNA
Experimental: The GABAA subunit selectivity of several compounds prepared as described above were determined using voltage clamp recordings from Xenopus oocytes that expressed that αxβ3γ2 GABAA receptor.
In Vitro Expression of GABAA Receptor Subunits The methods used for isolating, culturing, injecting and defolliculating of the oocytes were identical with those described by E. Sigel. […] European journal of pharmacology 1995, 289, (1), 87-95; Sigel, E.;& Baur, R., Allosteric modulation by benzodiazepine receptor ligands of the GABAA receptor channel expressed in Xenopus oocytes. J. Neurosci. 1988, 8, (1), 289-95; Sigel, E.; & Minier, F., The Xenopus oocyte: System for the study of functional expression and modulation of proteins. Molecular Nutrition & Food Research 2005, 49, (3), 228-234. Mature female Xenopus laevis (Nasco, Wis.) were anaesthetized in a bath of ice-cold 0.17% Tricain (Ethyl-m-aminobenzoate, Sigma, Mo.) before decapitation and removal of the frog ovary. Stage 5 to 6 oocytes with the follicle cell layer around them were singled out of the ovary using a platinum wire loop. […]
Voltage Clamp Recordings From Xenopus Oocytes. […] Data were digitized, recorded and measured using a Digidata 1322A data acquisition system (Axon Instruments, Union City, Calif.). […]

[1] = tested on: Metrazol-induced clonic seizures; assay: Subcutaneous Metrazol test (scMet), rats; format: in vivo
[2] = Toxicity (TOX), rotorod procedure, mice; format: in vivo; conditions: mouse, in vivo; Mice IP, rotorod; read-out: TD50 TOX
[3] = target: T2, GABAA/α1 (α1β3γ2 GABAA receptors) (Homo sapiens, UniProt P14867+P18507); assay: Competitive binding assay, [3H]flunitrazepam; conditions: Binding Affinity at GABAA/α1, αxβ3γ2, [3H]flunitrazepam competition
T2 construct: expressed in transfected cells
Procedure, shortened: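 Bound ligand was collected on 0.3% polyethyleneimine-pretreated GF/C filters with three ice-cold washes and quantified by liquid scintillation counting; membrane protein was determined against a BSA standard.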

Structure (SMILES)	efficacy at α1 (percent of control current) (α1β3γ2 GABAA receptors) [%]	ED50 ([1]; Rat IP) [mg/kg]	scMet, animals protected/tested ([1]; Rat IP, 100 mg/kg, 0.5 hr)	scMet, animals protected/tested ([1]; Rat IP, 100 mg/kg, 4.0 hr)	ED50 ([1]; Rat PO) [mg/kg]	scMet, animals protected/tested ([1]; Rat PO, 50 mg/kg, 0.5 h)	scMet, animals protected/tested ([1]; Rat PO, 50 mg/kg, 1.0 h)	scMet, animals protected/tested ([1]; Rat PO, 50 mg/kg, 2.0 h)	scMet, animals protected/tested ([1]; Rat PO, 50 mg/kg, 4.0 h)	scMet, animals protected/tested ([1]; Rat PO, 50 mg/kg, […])	TD50 [2] [mg/kg]	scMet, animals protected/tested ([1]; Rat PO, 40 mg/kg, 4.0 h)	scMet, animals protected/tested ([1]; Rat PO, 40 mg/kg, 6.0 h)	Ki [3] [µM]
C#Cc1ccc2c(c1)C(c1ccccn1)=NCc1c(C(=O)OCC)ncn1-2 [Hz166 (106), 8-Acetylenyl-6-pyridin-2-yl-4H-benzo[f]imidazo[1,5-a][1,4]diazepine-3-carboxylic acid ethyl ester]	255	35.5	7/8	5/8	98.5	4/4	2/4	1/4	0/4	0/4	> 500	–	–	–
C#Cc1ccc2c(c1)C(c1ccccc1F)=NCc1c(C(=O)OCC)ncn1-2 [JY-XHe-053 (15), Ethyl-8-acetyleno-6-(2′-fluorophenyl)-4H-benzo[f]imidazo[1,5-a][1,4]diazepine-3-carboxylate]	289	18.2	3/4	3/4	23.7	3/4	3/4	1/4	4/4	1/4	> 400	2/4^e	2/4^e	0.022
C#Cc1ccc2c(c1)C(c1ccccc1)=N[C@H](C)c1nnc(C)n1-2 [SH-TR-CH3 (146), (4R)-8-Ethynyl-1,4-dimethyl-6-phenyl-4H-benzo[f][1,2,4]triazolo[4,3-a][1,4]diazepine]	–	–	–	–	–	–	–	–	–	–	–	–	–	7.37

Source: patent US20100261711A1, “SELECTIVE ANTICONVULSANT AGENTS AND THEIR USES” (WiSys Technology Foundation, priority 2009, published 2010)
